Reference: publication PMC9171976 (Frontiers in Nutrition, 2022)

Tests used:
[1] = same extract given daily for 2 weeks and simultaneously with the dose of rosuvastatin; cited from earlier work
[2] = rats; single oral dose of green tea extract 400 mg/kg 30 min before simvastatin; cited from earlier work
[3] = Simvastatin-herb pharmacokinetic interaction study, plasma simvastatin lactone and acid by LC-MS/MS; conditions: male, human, po, 20 mg
human OATP1B1 = test system: human OATP1B1; parameters: method as in PMID 32006472; conditions: low concentration; CHO cells; cited from earlier work
[4] = male, human, in vivo, 20 mg
clinical = conditions: male, human, in vivo, 20 mg
[5] = parameters: method as in PMID 24419562; conditions: healthy volunteers; cited from earlier work

For `CC(C)c1nc(N(C)S(C)(=O)=O)nc(-c2ccc(F)cc2)c1/C=C/[C@@H](O)C[C@@H](O)CC(=O)O` [rosuvastatin], the “Reduction of systemic exposure with green tea extract” value [1] is given as “about 20%”.

In the case of `CCC(C)(C)C(=O)O[C@H]1C[C@@H](C)C=C2C=C[C@H](C)[C@H](CC[C@@H]3C[C@@H](O)CC(=O)O3)[C@H]21` [Simvastatin lactone, simvastatin], the “Effect of green tea extract on t1/2” value [2] is given as “no effect”, the half-life ([3]; T1/2, 18 subjects, simvastatin 20 mg with green tea extract, geometric mean (% CV)) is given as 4.96 h and the half-life ([3]; T1/2, 18 subjects, simvastatin 20 mg with soy isoflavones, geometric mean (% CV)) is given as 4.51 h. For the same compound, the half-life ([3]; T1/2, SLCO1B1 521CC (n = 4), after green tea) was 3.98 h, the half-life ([3]; T1/2, SLCO1B1 521CC (n = 4), after soy isoflavones) was 3.9 h and the half-life ([3]; T1/2, SLCO1B1 521CC (n = 4), baseline) was 4.83 h. For the same compound, the half-life ([3]; T1/2, SLCO1B1 521TC (n = 8), after green tea) was 4.72 h, the half-life ([3]; T1/2, SLCO1B1 521TC (n = 8), after soy isoflavones) was 4.71 h and the half-life ([3]; T1/2, SLCO1B1 521TC (n = 8), baseline) was 4.54 h. The half-life ([3]; T1/2, SLCO1B1 521TT (n = 6), after green tea) was 6.15 h and the half-life ([3]; T1/2, SLCO1B1 521TT (n = 6), after soy isoflavones) was 4.71 h.

In the case of `O=C(O[C@@H]1Cc2c(O)cc(O)cc2O[C@@H]1c1ccc(O)c(O)c1)c1cc(O)c(O)c(O)c1` [epicatechin gallate (ECG), epicatechin gallate], the “Stimulating effect on OATP1B1-mediated DCF uptake” value (human OATP1B1) is listed as “about 160%”.

For `CCC(C)(C)C(=O)O[C@H]1C[C@@H](C)C=C2C=C[C@H](C)[C@H](CC[C@@H](O)C[C@@H](O)CC(=O)O)[C@H]21` [Simvastatin acid, simvastatin acid], the “AUC0–24h” value [4] is given as 12.1 (54.6) h⋅μg/L, the “Increase of AUC0–6h with green tea extract” value [2] is given as 2.0 fold and the AUC(0-t) (clinical; AUC0–24h) is given as 16.1 ng·h/mL. It also gave a half-life (clinical; po, T1/2) of 3.94 h and a Tmax (clinical; po, Tmax) of 3.5 h.

In the case of `CC(C)(C)NCC(O)COc1cccc2c1CC(O)C(O)C2` (stereo not shown) [nadolol], the “Reduction of systemic exposure with green tea taken as a drink” value [5] is given as 85%.
